The text below walks through data of ChEMBL document CHEMBL3044973, “Substituted 9-aryl-1,8-acridinedione derivatives and their effects on potassium channels” (Med Chem Res, 2009).

What all share (conditions): Aorta
Assay [1] has as its target T1, Potassium channel protein (Rattus norvegicus) (UniProt Q6I9B6).
T1 sequence (whole entry): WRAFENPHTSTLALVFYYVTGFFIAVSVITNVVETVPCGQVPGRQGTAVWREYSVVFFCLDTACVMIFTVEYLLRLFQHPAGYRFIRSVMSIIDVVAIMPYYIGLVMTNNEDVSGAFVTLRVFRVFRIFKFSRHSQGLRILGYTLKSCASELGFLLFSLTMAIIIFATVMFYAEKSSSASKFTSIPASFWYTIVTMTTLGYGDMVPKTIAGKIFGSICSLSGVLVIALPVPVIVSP
The assay is described as follows: Activation of potassium channel in Rattus norvegicus (rat) aortic rings assessed as inhibition of phenylepinephrine-induced contractile response in presence of calcium activated potassium channel inhibitor TEA.

Assay [2] addresses T1, Potassium channel protein (Rattus norvegicus). Description: Activation of potassium channel in Rattus norvegicus (rat) aortic rings assessed as inhibition of phenylepinephrine-induced contractile response in presence of ATP-sensitive potassium channel inhibitor glibenclamide relative to control.
Assay [3] has the same target. The assay is described as follows: Activation of potassium channel in Rattus norvegicus (rat) aortic rings assessed as inhibition of phenylepinephrine-induced contractile response in presence of ATP-sensitive potassium channel inhibitor glibenclamide.
Assay [4] shares this target. Description: Activation of potassium channel in Rattus norvegicus (rat) aortic rings assessed as inhibition of phenylepinephrine-induced contractile response relative to control.
The target is the same in assay [5]. The assay is described as follows: Activation of potassium channel in Rattus norvegicus (rat) aortic rings assessed as inhibition of phenylepinephrine-induced contractile response.
For assay [6] the target is unchanged. Description: Activation of potassium channel in Rattus norvegicus (rat) aortic rings assessed as inhibition of phenylepinephrine-induced contractile response in presence of calcium activated potassium channel inhibitor TEA relative to control.

The structures appear in SMILES notation.

Regarding `CC1CC(=O)C2=C(C1)NC1=C(C(=O)CC(C)C1)C2c1cccc(C(F)(F)F)c1Cl` (stereo unspecified), the Activity entry in assay [1], in assay [3] and in assay [5] was “Dose-dependent effect” throughout. Further, the Emax turned out to be 29% in assay [2], 63% in assay [4] and 19.8% in assay [6]. In assay [5], the pD2 turned out to be 4.23.
With `CC1CC(=O)C2=C(C1)NC1=C(C(=O)CC(C)C1)C2c1ccc(C(F)(F)F)cc1F` (stereo unspecified), the Activity entry in assay [1], in assay [3] and in assay [5] was “Dose-dependent effect” in each case. Also, the maximal response (Emax) amounted to 27.2% in assay [2], 57.4% in assay [4] and 27.7% in assay [6]. In assay [5], the pD2 was found to be 4.12.
`CC1CC(=O)C2=C(C1)NC1=C(C(=O)CC(C)C1)C2c1ccc(Cl)c(C(F)(F)F)c1` (stereo unspecified): the Activity entry in assay [1], in assay [3] and in assay [5] was “Dose-dependent effect” each time.
Consider `CC1CC(=O)C2=C(C1)NC1=C(C(=O)CC(C)C1)C2c1cc(C(F)(F)F)cc(Cl)c1F` (stereo unspecified), for which the Activity result in assay [1], in assay [3] and in assay [5] was “Dose-dependent effect” in each case.
Turning to `CC1CC(=O)C2=C(C1)NC1=C(C(=O)CC(C)C1)C2c1cc(F)cc(C(F)(F)F)c1` (stereo unspecified), the Activity entry in assay [1], in assay [3] and in assay [5] was “Dose-dependent effect” each time.
In the case of `CC1CC(=O)C2=C(C1)NC1=C(C(=O)CC(C)C1)C2c1c(C(F)(F)F)ccc(Cl)c1F` (stereo unspecified), the Activity result in assay [1], in assay [3] and in assay [5] was “Dose-dependent effect” in each case. Besides, in assay [4], the maximal response (Emax) was determined as 52.2%. Besides, the pD2 in assay [5] came to 4.38.
On to `CC1CC(=O)C2=C(C1)NC1=C(C(=O)CC(C)C1)C2c1c(F)cccc1C(F)(F)F` (stereo unspecified), for which the Activity result in assay [1], in assay [3] and in assay [5] was “Dose-dependent effect” each time. Further, the maximal effect (Emax) came out at 23.8% in assay [2], 59.5% in assay [4] and 21.8% in assay [6]. The pD2 in assay [5] turned out to be 4.6.
Consider `CC1CC(=O)C2=C(C1)NC1=C(C(=O)CC(C)C1)C2c1cc(C(F)(F)F)ccc1F` (stereo unspecified), for which the Activity entry in assay [1], in assay [3] and in assay [5] was “Dose-dependent effect” throughout.
As to `CC1CC(=O)C2=C(C1)NC1=C(C(=O)CC(C)C1)C2c1cccc(C(F)(F)F)c1F` (stereo unspecified), the Activity entry in assay [1], in assay [3] and in assay [5] was “Dose-dependent effect” throughout.
For `CC1CC(=O)C2=C(C1)NC1=C(C(=O)CC(C)C1)C2c1ccc(F)cc1C(F)(F)F` (stereo unspecified), the Activity entry in assay [1], in assay [3] and in assay [5] was “Dose-dependent effect” in each case.
As to `CC1CC(=O)C2=C(C1)NC1=C(C(=O)CC(C)C1)C2c1ccc(F)c(C(F)(F)F)c1` (stereo unspecified), the Activity result in assay [1], in assay [3] and in assay [5] was “Dose-dependent effect” in each case. In addition, the Emax was 22.4% in assay [2], 55% in assay [4] and 15.5% in assay [6]. In addition, the pD2 in assay [5] stood at 4.13.
As for `CC(N/C(=N\C#N)Nc1ccncc1)C(C)(C)C` (stereo unspecified), the Activity result in assay [1], in assay [3] and in assay [5] was “Dose-dependent effect” each time. The Emax was found to be 20.8% in assay [2], 69.5% in assay [4] and 18.5% in assay [6]. Further, the pD2 in assay [5] is 4.71.
In the case of `CC1CC(=O)C2=C(C1)NC1=C(C(=O)CC(C)C1)C2c1cc(C(F)(F)F)ccc1Cl` (stereo unspecified), the Activity entry in assay [1], in assay [3] and in assay [5] was “Dose-dependent effect” throughout.

One may read the Emax as the size of the effect at its maximum, as opposed to the concentration needed.
